Results as given in ChEMBL document CHEMBL1201862, “PubChem BioAssay data set” (2004).
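The compound was tested at five concentrations on cells cultured in 96-well plates, with a 48-hour exposure period. At the GI50, growth is halved.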 Calls of active or inactive are those of the source. Cut-off read from the data, not from the text of the source: active = GI50 up to about 1.1 µM and inactive = higher.

Columns and labels:
Assay in all cases: growth of human tumour cells (NCI), 48 h
ACHN = system: ACHN
M19-MEL = system: M19-MEL
RPMI-8226 = system: RPMI-8226
HCT-15 = system: HCT-15
SNB-75 = system: SNB-75
SK-MEL-5 = system: SK-MEL-5
M14 = system: M14
MOLT-4 = system: MOLT-4
OVCAR-3 = system: OVCAR-3
LOX IMVI = system: LOX IMVI
UACC-62 = system: UACC-62
OVCAR-4 = system: OVCAR-4
RXF 393 = system: RXF 393
NCI-H226 = system: NCI-H226
KM12 = system: KM12
NCI-H23 = system: NCI-H23
XF498 = system: XF498
SNB-19 = system: SNB-19
DLD-1 = system: DLD-1
OVCAR-5 = system: OVCAR-5
EKVX = system: EKVX
SF-295 = system: SF-295
TK-10 = system: TK-10
CCRF-CEM = system: CCRF-CEM
A498 = system: A498
DMS-114 = system: DMS-114
786-0 = system: 786-0
KM-20L2 = system: KM-20L2
OVCAR-8 = system: OVCAR-8
RXF 631 = system: RXF 631
HOP-62 = system: HOP-62
UO-31 = system: UO-31
NCI-H460 = system: NCI-H460
Malme-3M = system: Malme-3M
SF-539 = system: SF-539
SN12C = system: SN12C
HL-60 = system: HL-60
SK-MEL-2 = system: SK-MEL-2
COLO 205 = system: COLO 205
IGROV-1 = system: IGROV-1
SK-MEL-28 = system: SK-MEL-28
HCC 2998 = system: HCC 2998
A549 = system: A549
LXFL 529 = system: LXFL 529
U-251 = system: U-251
SW-620 = system: SW-620
HT-29 = system: HT-29
HCT-116 = system: HCT-116
SR = system: SR
SK-OV-3 = system: SK-OV-3
SF-268 = system: SF-268
CAKI-1 = system: CAKI-1
K562 = system: K562
NCI-H522 = system: NCI-H522
HOP-18 = system: HOP-18
SNB-78 = system: SNB-78
UACC-257 = system: UACC-257
DMS-273 = system: DMS-273
HOP-92 = system: HOP-92

With `COC(=O)C(Cc1nc2ccccc2nc1C)/C(=N\NC(N)=O)C(=O)Nc1cccc([N+](=O)[O-])c1` (stereo unspecified) the GI50 (ACHN) was > 100 µM (inactive), the GI50 (M19-MEL) was 37.9 µM (inactive) and the GI50 (RPMI-8226) was > 100 µM (inactive). The GI50 (HCT-15) was over 100 µM, the GI50 (SNB-75) was > 100 µM (inactive) and the GI50 (SK-MEL-5) was > 100 µM (inactive). The GI50 (M14) was > 100 µM (inactive), the GI50 (MOLT-4) was 57.5 µM (inactive) and the GI50 (OVCAR-3) was 51.2 µM (inactive). The GI50 (LOX IMVI) was > 100 µM (inactive), the GI50 (UACC-62) was 45.2 µM (inactive) and the GI50 (OVCAR-4) was > 100 µM (inactive). For the same molecule, the GI50 (RXF 393) was 36.8 µM (inactive), the GI50 (NCI-H226) was > 100 µM (inactive) and the GI50 (KM12) was 95.9 µM (inactive). For the same molecule, the GI50 (NCI-H23) was 71.8 µM (inactive), the GI50 (XF498) was > 100 µM (inactive) and the GI50 (SNB-19) was > 100 µM (inactive). For the same molecule, the GI50 (DLD-1) was > 100 µM (inactive), the GI50 (OVCAR-5) was > 100 µM (inactive) and the GI50 (EKVX) was > 100 µM (inactive). The GI50 (SF-295) was > 100 µM (inactive), the GI50 (TK-10) was > 100 µM (inactive) and the GI50 (CCRF-CEM) was 29.6 µM (inactive). For the same molecule, the GI50 (A498) was > 100 µM (inactive), the GI50 (DMS-114) was 51.5 µM (inactive) and the GI50 (786-0) was > 100 µM (inactive). The GI50 (KM-20L2) was > 100 µM (inactive), the GI50 (OVCAR-8) was 80.7 µM (inactive) and the GI50 (RXF 631) was > 100 µM (inactive). The GI50 (HOP-62) was > 100 µM (inactive), the GI50 (UO-31) was > 100 µM (inactive) and the GI50 (NCI-H460) was > 100 µM (inactive). The GI50 (Malme-3M) was > 100 µM (inactive), the GI50 (SF-539) was 74.3 µM (inactive) and the GI50 (SN12C) was > 100 µM (inactive). The GI50 (HL-60) was 36.1 µM (inactive), the GI50 (SK-MEL-2) was > 100 µM (inactive) and the GI50 (COLO 205) was 88.3 µM (inactive). For the same molecule, the GI50 (IGROV-1) was > 100 µM (inactive), the GI50 (SK-MEL-28) was > 100 µM (inactive) and the GI50 (HCC 2998) was > 100 µM (inactive). The GI50 (A549) was > 100 µM (inactive), the GI50 (LXFL 529) was 37.7 µM (inactive) and the GI50 (U-251) was 37.6 µM (inactive). The GI50 (SW-620) was > 100 µM (inactive), the GI50 (HT-29) was > 100 µM (inactive) and the GI50 (HCT-116) was > 100 µM (inactive). For the same molecule, the GI50 (SR) was 24.4 µM (inactive), the GI50 (SK-OV-3) was > 100 µM (inactive) and the GI50 (SF-268) was 64.9 µM (inactive). For the same molecule, the GI50 (CAKI-1) was > 100 µM (inactive), the GI50 (K562) was 64.3 µM (inactive) and the GI50 (NCI-H522) was 10.8 µM (inactive). The GI50 (HOP-18) was > 100 µM (inactive), the GI50 (SNB-78) was > 100 µM (inactive) and the GI50 (UACC-257) was > 100 µM (inactive).

With `CCCOC(=O)CCC(NC(=O)c1ccc(Nc2nc3ccccc3nc2-c2cccs2)cc1)C(=O)OCCC` (stereo unspecified) the GI50 (ACHN) was > 100 µM (inactive), the GI50 (M19-MEL) was > 100 µM (inactive) and the GI50 (RPMI-8226) was > 100 µM (inactive). For the same molecule, the GI50 (HCT-15) was over 100 µM, the GI50 (SK-MEL-5) was 72.1 µM (inactive) and the GI50 (MOLT-4) was 2.31 µM (inactive). For the same molecule, the GI50 (OVCAR-3) was > 100 µM (inactive), the GI50 (LOX IMVI) was > 100 µM (inactive) and the GI50 (UACC-62) was 41.7 µM (inactive). The GI50 (OVCAR-4) was > 100 µM (inactive), the GI50 (DMS-273) was > 100 µM (inactive) and the GI50 (RXF 393) was 67.9 µM (inactive). The GI50 (NCI-H226) was > 100 µM (inactive), the GI50 (KM12) was > 100 µM (inactive) and the GI50 (NCI-H23) was > 100 µM (inactive). The GI50 (XF498) was 79.8 µM (inactive), the GI50 (SNB-19) was > 100 µM (inactive) and the GI50 (OVCAR-5) was 56 µM (inactive). The GI50 (EKVX) was > 100 µM (inactive), the GI50 (SF-295) was > 100 µM (inactive) and the GI50 (TK-10) was > 100 µM (inactive). The GI50 (CCRF-CEM) was 3.62 µM (inactive), the GI50 (KM-20L2) was > 100 µM (inactive) and the GI50 (OVCAR-8) was > 100 µM (inactive). The GI50 (HOP-92) was 29.2 µM (inactive), the GI50 (RXF 631) was > 100 µM (inactive) and the GI50 (HOP-62) was > 100 µM (inactive). The GI50 (UO-31) was 95.9 µM (inactive), the GI50 (Malme-3M) was 19.1 µM (inactive) and the GI50 (SF-539) was > 100 µM (inactive). For the same molecule, the GI50 (SN12C) was > 100 µM (inactive), the GI50 (SK-MEL-2) was 24.8 µM (inactive) and the GI50 (COLO 205) was > 100 µM (inactive). For the same molecule, the GI50 (IGROV-1) was 55.1 µM (inactive), the GI50 (SK-MEL-28) was > 100 µM (inactive) and the GI50 (HCC 2998) was 95.5 µM (inactive). For the same molecule, the GI50 (A549) was > 100 µM (inactive), the GI50 (LXFL 529) was > 100 µM (inactive) and the GI50 (U-251) was > 100 µM (inactive). For the same molecule, the GI50 (SW-620) was > 100 µM (inactive), the GI50 (HCT-116) was > 100 µM (inactive) and the GI50 (SR) was 61.9 µM (inactive). The GI50 (SK-OV-3) was > 100 µM (inactive), the GI50 (SF-268) was > 100 µM (inactive) and the GI50 (CAKI-1) was > 100 µM (inactive). For the same molecule, the GI50 (K562) was > 100 µM (inactive), the GI50 (NCI-H522) was > 100 µM (inactive) and the GI50 (HOP-18) was > 100 µM (inactive). For the same molecule, the GI50 (SNB-78) was > 100 µM (inactive).

`Cc1ccc(S(=O)(=O)NC(=O)Nc2nc(Cl)cc(Cl)n2)cc1` was tested, and the GI50 (ACHN) was > 100 µM (inactive), the GI50 (M19-MEL) was > 100 µM (inactive) and the GI50 (RPMI-8226) was > 100 µM (inactive). For the same molecule, the GI50 (SNB-75) was > 100 µM (inactive), the GI50 (SK-MEL-5) was > 100 µM (inactive) and the GI50 (M14) was > 100 µM (inactive). The GI50 (MOLT-4) was 57.7 µM (inactive), the GI50 (OVCAR-3) was > 100 µM (inactive) and the GI50 (LOX IMVI) was > 100 µM (inactive). The GI50 (UACC-62) was > 100 µM (inactive), the GI50 (OVCAR-4) was > 100 µM (inactive) and the GI50 (RXF 393) was > 100 µM (inactive). The GI50 (NCI-H226) was > 100 µM (inactive), the GI50 (KM12) was > 100 µM (inactive) and the GI50 (NCI-H23) was > 100 µM (inactive). The GI50 (XF498) was > 100 µM (inactive), the GI50 (SNB-19) was > 100 µM (inactive) and the GI50 (DLD-1) was > 100 µM (inactive). For the same molecule, the GI50 (OVCAR-5) was > 100 µM (inactive), the GI50 (EKVX) was > 100 µM (inactive) and the GI50 (SF-295) was > 100 µM (inactive). The GI50 (TK-10) was > 100 µM (inactive), the GI50 (CCRF-CEM) was > 100 µM (inactive) and the GI50 (A498) was > 100 µM (inactive). For the same molecule, the GI50 (DMS-114) was 96.4 µM (inactive), the GI50 (786-0) was > 100 µM (inactive) and the GI50 (KM-20L2) was > 100 µM (inactive). The GI50 (OVCAR-8) was > 100 µM (inactive), the GI50 (HOP-92) was 99.3 µM (inactive) and the GI50 (RXF 631) was > 100 µM (inactive). The GI50 (HOP-62) was > 100 µM (inactive), the GI50 (UO-31) was > 100 µM (inactive) and the GI50 (NCI-H460) was > 100 µM (inactive). The GI50 (Malme-3M) was > 100 µM (inactive), the GI50 (SF-539) was > 100 µM (inactive) and the GI50 (SN12C) was > 100 µM (inactive). The GI50 (HL-60) was > 100 µM (inactive), the GI50 (SK-MEL-2) was > 100 µM (inactive) and the GI50 (COLO 205) was > 100 µM (inactive). The GI50 (IGROV-1) was > 100 µM (inactive), the GI50 (SK-MEL-28) was > 100 µM (inactive) and the GI50 (HCC 2998) was 28.3 µM (inactive). The GI50 (A549) was > 100 µM (inactive), the GI50 (LXFL 529) was > 100 µM (inactive) and the GI50 (U-251) was > 100 µM (inactive). For the same molecule, the GI50 (SW-620) was > 100 µM (inactive), the GI50 (HCT-116) was > 100 µM (inactive) and the GI50 (SK-OV-3) was > 100 µM (inactive). The GI50 (SF-268) was > 100 µM (inactive), the GI50 (CAKI-1) was > 100 µM (inactive) and the GI50 (K562) was 62.2 µM (inactive). For the same molecule, the GI50 (NCI-H522) was 5.89 µM (inactive), the GI50 (HOP-18) was > 100 µM (inactive) and the GI50 (SNB-78) was > 100 µM (inactive). The GI50 (UACC-257) was 19.2 µM (inactive).
